Measured values reported in PubChem BioAssay (NCI).
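Interpolation was linear, between the two tested concentrations surrounding the appropriate level; five concentrations were tested over 48 hours in 96-well plates. The concentration for 50% growth inhibition is given as GI50. The concentration for full growth arrest is given as TGI.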

Assays:
Assay in all cases: inhibition of tumour cell growth, NCI panel, 48 h
[1] = test system: EKVX NSCLC
[2] = test system: HOP-92 NSCLC
[3] = test system: IGROV1 ovarian
[4] = test system: MALME-3M melanoma
[5] = test system: MDA-MB-435
[6] = test system: SF-268 CNS
[7] = test system: SF-539 CNS
[8] = test system: TK-10 renal
[9] = test system: UACC-62 melanoma
[10] = test system: UO-31 renal

Cc1cc2nc3c4cccc(O)c4n(CCN(C)C)c3nc2cc1C
GI50 [1]: 2.89 µM
TGI [1]: 17.7 µM
GI50 [2]: 1570 nM
TGI [2]: 7.58 µM
GI50 [3]: 1320 nM
TGI [3]: 10.8 µM
GI50 [4]: 1.64 µM
TGI [4]: 3.42 µM
GI50 [5]: 1650 nM
TGI [5]: 3.12 µM
GI50 [6]: 4230 nM
TGI [6]: 27.6 µM
GI50 [7]: 1510 nM
TGI [7]: 3.23 µM
GI50 [8]: 4.37 µM
TGI [8]: 19.8 µM
GI50 [9]: 1730 nM
TGI [9]: 3.73 µM
GI50 [10]: 860 nM
TGI [10]: 3.28 µM

NC(=O)NCCSC1CCCCC1O (centres undefined)
TGI [1]: > 100 µM
TGI [2]: > 100 µM
TGI [3]: > 100 µM
TGI [4]: > 100 µM
TGI [5]: > 100 µM
TGI [6]: > 100 µM
TGI [7]: > 100 µM
TGI [8]: > 100 µM
TGI [9]: > 100 µM
TGI [10]: > 100 µM

COc1cc2c(cc1OC)-c1c(c3ccc([N+](=O)[O-])cc3c(=O)n1CCCN)C2=O
GI50 [1]: 7.75 µM
TGI [1]: 18.3 µM
GI50 [2]: 7290 nM
TGI [2]: 16.5 µM
GI50 [3]: 306 nM
TGI [3]: 8.29 µM
GI50 [4]: 5.31 µM
TGI [4]: 16.4 µM
GI50 [5]: 7230 nM
TGI [5]: 15.4 µM
GI50 [6]: 1400 nM
TGI [6]: 12.3 µM
GI50 [7]: 124 nM
TGI [7]: 1.29 µM
GI50 [8]: 7.24 µM
TGI [8]: 17.1 µM
GI50 [9]: 1950 nM
TGI [9]: 10.8 µM
GI50 [10]: 351 nM
TGI [10]: 3.59 µM

CCN1CCC(CC(=O)Nc2n[nH]c3nc(-c4cccs4)c(Br)cc23)CC1
GI50 [1]: > 25 µM
TGI [1]: > 25 µM
GI50 [2]: > 24100 nM
TGI [2]: > 25 µM
GI50 [3]: 12800 nM
TGI [3]: > 25 µM
GI50 [4]: 6.42 µM
TGI [4]: 13.4 µM
GI50 [5]: 5350 nM
TGI [5]: 14.5 µM
GI50 [6]: 11500 nM
TGI [6]: > 25 µM
GI50 [7]: 9220 nM
TGI [7]: > 22.2 µM
GI50 [8]: 5.81 µM
TGI [8]: > 21.4 µM
GI50 [9]: 5260 nM
TGI [9]: 11 µM
GI50 [10]: 9050 nM
TGI [10]: > 25 µM

CN1CCC(n2[nH]c(-c3ccccc3)c(Cc3ccccc3)c2=O)CC1
TGI [1]: > 100 µM
TGI [2]: > 100 µM
TGI [3]: > 100 µM
TGI [4]: > 100 µM
TGI [5]: > 100 µM
TGI [6]: > 100 µM
TGI [7]: > 100 µM
TGI [8]: > 100 µM
TGI [9]: > 100 µM
TGI [10]: > 100 µM

c1cncc(CNc2ncn[nH]2)c1
TGI [1]: > 100 µM
TGI [2]: > 100 µM
TGI [3]: > 100 µM
TGI [4]: > 100 µM
TGI [5]: > 100 µM
TGI [6]: > 100 µM
TGI [7]: > 100 µM
TGI [8]: > 100 µM
TGI [9]: > 100 µM
TGI [10]: > 100 µM

CCOC(=O)/C(=C\c1ccc(F)cc1)C(C)=O
TGI [1]: 83.6 µM
TGI [2]: 44.3 µM
TGI [3]: 38.9 µM
TGI [4]: 43.1 µM
TGI [5]: > 100 µM
TGI [6]: > 100 µM
TGI [7]: > 100 µM
TGI [8]: 52.3 µM
TGI [9]: 38.1 µM
TGI [10]: 31.2 µM

O=[N+]([O-])c1cccc(-c2cc(-c3cc(Br)ccc3O)[nH]n2)c1
GI50 [1]: 2 µM
TGI [1]: 7.91 µM
GI50 [2]: 2380 nM
TGI [2]: 8.08 µM
GI50 [3]: 2270 nM
TGI [3]: 7.06 µM
GI50 [4]: 2.21 µM
TGI [4]: 5.52 µM
GI50 [5]: 1770 nM
TGI [5]: 4.58 µM
GI50 [6]: 2860 nM
TGI [6]: 12.7 µM
GI50 [7]: 2890 nM
TGI [7]: 11 µM
GI50 [8]: 2.26 µM
TGI [8]: 6.71 µM
GI50 [9]: 2630 nM
TGI [9]: 11.7 µM
GI50 [10]: 2340 nM
TGI [10]: 9.38 µM

COc1ccc(-n2c3c(c4c(CN(C)C)c(O)c(C)cc42)CCc2ccccc2C3=O)cc1
GI50 [1]: 44.5 µM
TGI [1]: > 100 µM
GI50 [2]: 41900 nM
TGI [2]: > 100 µM
GI50 [3]: 21000 nM
TGI [3]: 85.2 µM
GI50 [4]: 25.4 µM
TGI [4]: > 100 µM
GI50 [5]: 14000 nM
TGI [5]: 40.4 µM
GI50 [6]: 61900 nM
TGI [6]: > 100 µM
GI50 [7]: 26900 nM
TGI [7]: > 100 µM
GI50 [8]: 47.2 µM
TGI [8]: > 100 µM
GI50 [9]: 30600 nM
TGI [9]: > 100 µM
GI50 [10]: 45900 nM
TGI [10]: > 100 µM

COc1cc(/C=C2\C(=O)Nc3ccccc32)cc(OC)c1OC
GI50 [1]: 18.8 µM
TGI [1]: > 100 µM
GI50 [2]: 20800 nM
TGI [2]: 71.7 µM
GI50 [3]: 20000 nM
TGI [3]: > 100 µM
GI50 [4]: 67 µM
TGI [4]: > 100 µM
GI50 [5]: 4100 nM
TGI [5]: 45.1 µM
GI50 [6]: 955 nM
TGI [6]: > 100 µM
GI50 [7]: 27900 nM
TGI [7]: > 100 µM
GI50 [8]: 29.4 µM
TGI [8]: > 100 µM
GI50 [9]: 14400 nM
TGI [9]: > 100 µM
GI50 [10]: 30400 nM
TGI [10]: > 100 µM

CNCCOC(=O)/C=C1/CCC2C(C(O)CC3C(C)(C(=O)OC)CCCC23C)C1C (centres undefined)
GI50 [1]: < 0.0136 µM
TGI [1]: 0.0331 µM
GI50 [2]: 24.3 nM
TGI [2]: 0.0764 µM
GI50 [3]: 30.5 nM
TGI [3]: 0.0971 µM
GI50 [4]: 0.0253 µM
TGI [4]: 0.0599 µM
GI50 [5]: 28.9 nM
TGI [5]: 0.0881 µM
GI50 [6]: < 10 nM
TGI [6]: 0.02 µM
GI50 [7]: 20.6 nM
TGI [7]: 0.0408 µM
GI50 [8]: 0.0168 µM
TGI [8]: 0.0351 µM
GI50 [9]: 23.5 nM
TGI [9]: 0.0559 µM
GI50 [10]: 18.7 nM
TGI [10]: 0.0372 µM

COc1ccc(-n2c(C)nc3c(c(C)nn3-c3ccccc3)c2=O)cc1
GI50 [1]: 0.144 µM
TGI [1]: > 100 µM
GI50 [2]: 433 nM
TGI [2]: 29.3 µM
GI50 [3]: 70.1 nM
TGI [3]: > 100 µM
GI50 [4]: 15.9 µM
TGI [4]: > 100 µM
GI50 [5]: 30.5 nM
TGI [5]: 0.116 µM
GI50 [6]: 1760 nM
TGI [6]: > 100 µM
GI50 [7]: 47.1 nM
GI50 [8]: 9.02 µM
TGI [8]: > 100 µM
GI50 [9]: 42.6 nM
TGI [9]: > 100 µM
GI50 [10]: 261 nM
TGI [10]: > 43.4 µM
